Laboratory results from ChEMBL document CHEMBL5316327, “Design and Synthesis of Orally Active Quinolyl Pyrazinamides as Sigma 2 Receptor Ligands for the Treatment of Pancreatic Cancer” (J Med Chem, 2023).

How the values were obtained:
[1] = target: Sigma non-opioid intracellular receptor 1 (Homo sapiens, UniProt Q99720); test: Displacement of [3H](+)-pentazocine from human sigma 1 receptor transfected in human HEK293T cells assessed as inhibition constant by radioligand competition binding assay; format: cell-based
[2] = target: Sigma intracellular receptor 2 (Homo sapiens, UniProt Q5BJF2); test: Displacement of [3H][…]ditolylguanidine from human sigma 2 receptor transfected in human HEK293T cells assessed as inhibition constant by radioligand competition binding assay; format: cell-based
D(1A) dopamine receptor = D(1A) dopamine receptor (Homo sapiens, UniProt P21728); test: Binding affinity to dopamine D1 receptor (unknown origin) assessed as inhibition constant
D(3) dopamine receptor = D(3) dopamine receptor (Homo sapiens, UniProt P35462); test: Binding affinity to dopamine D3 receptor (unknown origin) assessed as inhibition constant
D(1B) dopamine receptor = D(1B) dopamine receptor (Homo sapiens, UniProt P21918); test: Binding affinity to dopamine D5 receptor (unknown origin) assessed as inhibition constant
[3] = target: Muscarinic acetylcholine receptor M5 (Homo sapiens, UniProt P08912); test: Binding affinity to M5 receptor (unknown origin) assessed as inhibition constant
[4] = target: Muscarinic acetylcholine receptor M1 (Homo sapiens, UniProt P11229); test: Binding affinity to M1 receptor (unknown origin) assessed as inhibition constant
[5] = target: Muscarinic acetylcholine receptor M2 (Homo sapiens, UniProt P08172); test: Binding affinity to M2 receptor (unknown origin) assessed as inhibition constant
[6] = target: Muscarinic acetylcholine receptor M3 (Homo sapiens, UniProt P20309); test: Binding affinity to M3 receptor (unknown origin) assessed as inhibition constant
[7] = target: Muscarinic acetylcholine receptor M4 (Homo sapiens, UniProt P08173); test: Binding affinity to M4 receptor (unknown origin) assessed as inhibition constant
Histamine H2 receptor = Histamine H2 receptor (Homo sapiens, UniProt P25021); test: Binding affinity to histamine H2 receptor (unknown origin) assessed as inhibition constant
Histamine H3 receptor = Histamine H3 receptor (Homo sapiens, UniProt Q9Y5N1); test: Binding affinity to histamine H3 receptor (unknown origin) assessed as inhibition constant
[8] = target: 5-hydroxytryptamine receptor 1A (Homo sapiens, UniProt P08908); test: Binding affinity to 5-HT1A receptor (unknown origin) assessed as inhibition constant
[9] = target: 5-hydroxytryptamine receptor 2B (Homo sapiens, UniProt P41595); test: Binding affinity to 5-HT2B receptor (unknown origin) assessed as inhibition constant
[10] = target: 5-hydroxytryptamine receptor 1D (Homo sapiens, UniProt P28221); test: Binding affinity to 5-HT1D receptor (unknown origin) assessed as inhibition constant
[11] = target: Alpha-2A adrenergic receptor (Homo sapiens, UniProt P08913); test: Binding affinity to alpha2A receptor (unknown origin) assessed as inhibition constant
[12] = target: Alpha-2B adrenergic receptor (Homo sapiens, UniProt P18089); test: Binding affinity to alpha2B receptor (unknown origin) assessed as inhibition constant
[13] = target: Kappa-type opioid receptor (Homo sapiens, UniProt P41145); test: Binding affinity to KOR receptor (unknown origin) assessed as inhibition constant
[14] = Metabolic stability in mouse liver microsomes assessed as half life at 10 uM measured upto 60 mins in presence of NADPH by LC-MS/MS analysis; format: ADME, Microsome; conditions: 1 h
[15] = Metabolic stability in human liver microsomes assessed as half life at 10 uM measured upto 60 mins in presence of NADPH by LC-MS/MS analysis; format: ADME, Microsome; conditions: liver microsomes

Chain of Alpha-2B adrenergic receptor (P18089 whole entry): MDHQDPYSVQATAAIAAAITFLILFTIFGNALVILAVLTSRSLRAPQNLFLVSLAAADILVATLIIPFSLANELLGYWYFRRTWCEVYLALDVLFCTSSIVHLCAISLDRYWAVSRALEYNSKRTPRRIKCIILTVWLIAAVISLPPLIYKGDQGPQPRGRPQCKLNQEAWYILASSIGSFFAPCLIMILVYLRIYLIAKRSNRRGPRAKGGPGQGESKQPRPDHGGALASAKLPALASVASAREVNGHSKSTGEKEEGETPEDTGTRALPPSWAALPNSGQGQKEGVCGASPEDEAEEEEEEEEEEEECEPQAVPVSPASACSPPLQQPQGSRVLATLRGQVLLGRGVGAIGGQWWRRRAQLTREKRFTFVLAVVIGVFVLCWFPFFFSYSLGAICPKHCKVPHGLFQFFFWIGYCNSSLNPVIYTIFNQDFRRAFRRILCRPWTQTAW
Chain of Muscarinic acetylcholine receptor M1 (P11229 whole entry): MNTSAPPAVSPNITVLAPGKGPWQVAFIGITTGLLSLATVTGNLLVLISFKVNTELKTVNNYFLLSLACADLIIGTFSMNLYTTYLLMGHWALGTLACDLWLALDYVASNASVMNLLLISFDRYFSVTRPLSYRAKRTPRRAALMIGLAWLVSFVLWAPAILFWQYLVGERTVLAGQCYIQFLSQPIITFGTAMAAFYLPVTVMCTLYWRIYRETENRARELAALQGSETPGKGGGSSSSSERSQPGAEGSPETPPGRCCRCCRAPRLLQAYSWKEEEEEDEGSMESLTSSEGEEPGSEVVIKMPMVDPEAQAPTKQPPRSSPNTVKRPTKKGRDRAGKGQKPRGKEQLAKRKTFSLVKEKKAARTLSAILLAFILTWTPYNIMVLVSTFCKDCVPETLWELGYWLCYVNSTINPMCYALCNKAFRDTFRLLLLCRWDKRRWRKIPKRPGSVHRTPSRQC
Chain of Histamine H3 receptor (Q9Y5N1 whole entry): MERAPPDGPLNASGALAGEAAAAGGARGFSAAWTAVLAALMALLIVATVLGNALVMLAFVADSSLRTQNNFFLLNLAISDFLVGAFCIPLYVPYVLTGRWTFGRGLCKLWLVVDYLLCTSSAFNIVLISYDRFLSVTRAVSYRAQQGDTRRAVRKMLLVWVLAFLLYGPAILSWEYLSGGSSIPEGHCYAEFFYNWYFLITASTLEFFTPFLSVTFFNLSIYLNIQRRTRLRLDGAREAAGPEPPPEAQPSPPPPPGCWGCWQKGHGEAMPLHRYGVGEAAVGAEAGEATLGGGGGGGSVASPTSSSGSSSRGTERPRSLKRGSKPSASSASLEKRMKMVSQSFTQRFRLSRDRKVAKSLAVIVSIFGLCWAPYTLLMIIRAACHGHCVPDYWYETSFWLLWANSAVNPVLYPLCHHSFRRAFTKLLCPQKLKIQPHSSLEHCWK
Chain of D(1B) dopamine receptor (P21918 whole entry): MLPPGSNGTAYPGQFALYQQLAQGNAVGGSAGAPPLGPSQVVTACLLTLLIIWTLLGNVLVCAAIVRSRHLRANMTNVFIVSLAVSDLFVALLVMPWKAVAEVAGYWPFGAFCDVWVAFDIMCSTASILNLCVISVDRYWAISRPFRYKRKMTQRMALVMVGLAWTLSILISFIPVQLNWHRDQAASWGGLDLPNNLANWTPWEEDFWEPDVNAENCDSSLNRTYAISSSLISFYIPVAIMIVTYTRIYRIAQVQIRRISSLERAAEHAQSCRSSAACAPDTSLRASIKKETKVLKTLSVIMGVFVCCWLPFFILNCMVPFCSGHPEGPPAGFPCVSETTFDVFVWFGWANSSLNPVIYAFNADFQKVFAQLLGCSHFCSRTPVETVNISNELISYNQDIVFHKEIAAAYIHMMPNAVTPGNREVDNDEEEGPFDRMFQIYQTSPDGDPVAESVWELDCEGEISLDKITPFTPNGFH
Chain of 5-hydroxytryptamine receptor 2B (P41595 whole entry): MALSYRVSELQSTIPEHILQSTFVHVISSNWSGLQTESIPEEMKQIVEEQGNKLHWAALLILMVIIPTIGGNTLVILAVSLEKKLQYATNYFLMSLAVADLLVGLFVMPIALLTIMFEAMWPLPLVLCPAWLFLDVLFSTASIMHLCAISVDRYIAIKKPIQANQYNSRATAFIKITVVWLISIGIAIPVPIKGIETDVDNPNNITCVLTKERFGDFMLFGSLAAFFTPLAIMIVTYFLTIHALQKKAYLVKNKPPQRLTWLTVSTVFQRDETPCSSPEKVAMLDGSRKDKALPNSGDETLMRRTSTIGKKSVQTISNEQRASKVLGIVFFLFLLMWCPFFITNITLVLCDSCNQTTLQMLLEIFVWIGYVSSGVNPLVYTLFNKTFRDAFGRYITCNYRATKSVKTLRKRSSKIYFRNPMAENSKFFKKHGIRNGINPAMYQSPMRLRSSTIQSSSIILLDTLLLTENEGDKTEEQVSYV
Chain of Muscarinic acetylcholine receptor M4 (P08173 whole entry): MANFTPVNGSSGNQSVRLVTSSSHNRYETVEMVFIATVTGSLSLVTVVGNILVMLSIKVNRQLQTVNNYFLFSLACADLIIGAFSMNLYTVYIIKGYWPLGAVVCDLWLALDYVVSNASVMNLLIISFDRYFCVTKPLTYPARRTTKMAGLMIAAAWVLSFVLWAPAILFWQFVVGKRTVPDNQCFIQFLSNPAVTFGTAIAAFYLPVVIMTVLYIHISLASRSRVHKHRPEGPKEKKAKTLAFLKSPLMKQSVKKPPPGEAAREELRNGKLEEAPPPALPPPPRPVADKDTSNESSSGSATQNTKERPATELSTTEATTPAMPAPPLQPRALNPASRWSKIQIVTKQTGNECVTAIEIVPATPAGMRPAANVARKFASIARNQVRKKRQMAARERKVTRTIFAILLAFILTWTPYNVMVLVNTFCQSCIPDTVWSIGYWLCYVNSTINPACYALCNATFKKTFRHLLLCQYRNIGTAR
Chain of Sigma non-opioid intracellular receptor 1 (Q99720 whole entry): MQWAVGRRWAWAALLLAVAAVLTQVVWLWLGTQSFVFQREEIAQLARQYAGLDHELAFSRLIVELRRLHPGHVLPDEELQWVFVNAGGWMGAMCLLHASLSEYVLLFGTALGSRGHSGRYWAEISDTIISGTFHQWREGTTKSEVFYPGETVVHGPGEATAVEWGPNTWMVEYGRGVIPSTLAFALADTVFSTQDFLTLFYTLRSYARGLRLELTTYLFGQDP
Chain of Muscarinic acetylcholine receptor M2 (P08172 whole entry): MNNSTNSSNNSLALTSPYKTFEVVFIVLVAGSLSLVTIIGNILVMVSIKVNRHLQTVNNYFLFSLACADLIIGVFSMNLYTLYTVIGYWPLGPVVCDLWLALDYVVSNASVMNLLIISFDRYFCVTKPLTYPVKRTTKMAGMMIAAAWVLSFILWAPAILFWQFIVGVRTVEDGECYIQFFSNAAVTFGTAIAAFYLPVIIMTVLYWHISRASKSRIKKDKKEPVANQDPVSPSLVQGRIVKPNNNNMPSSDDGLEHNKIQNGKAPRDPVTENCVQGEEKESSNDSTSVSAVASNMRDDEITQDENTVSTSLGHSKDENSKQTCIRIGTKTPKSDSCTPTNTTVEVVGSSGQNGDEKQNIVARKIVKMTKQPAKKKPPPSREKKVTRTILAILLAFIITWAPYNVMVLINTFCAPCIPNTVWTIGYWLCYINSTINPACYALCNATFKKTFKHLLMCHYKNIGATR
Chain of 5-hydroxytryptamine receptor 1D (P28221 whole entry): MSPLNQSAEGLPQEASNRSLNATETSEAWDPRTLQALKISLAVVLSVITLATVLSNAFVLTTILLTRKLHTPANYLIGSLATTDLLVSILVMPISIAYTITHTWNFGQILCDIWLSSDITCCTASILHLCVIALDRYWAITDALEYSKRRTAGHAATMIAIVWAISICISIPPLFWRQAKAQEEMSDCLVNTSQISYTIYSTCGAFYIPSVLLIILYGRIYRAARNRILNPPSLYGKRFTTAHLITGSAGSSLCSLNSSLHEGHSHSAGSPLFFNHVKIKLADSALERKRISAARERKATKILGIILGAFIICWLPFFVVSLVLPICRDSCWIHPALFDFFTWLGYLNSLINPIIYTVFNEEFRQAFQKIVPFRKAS
Chain of Alpha-2A adrenergic receptor (P08913 whole entry): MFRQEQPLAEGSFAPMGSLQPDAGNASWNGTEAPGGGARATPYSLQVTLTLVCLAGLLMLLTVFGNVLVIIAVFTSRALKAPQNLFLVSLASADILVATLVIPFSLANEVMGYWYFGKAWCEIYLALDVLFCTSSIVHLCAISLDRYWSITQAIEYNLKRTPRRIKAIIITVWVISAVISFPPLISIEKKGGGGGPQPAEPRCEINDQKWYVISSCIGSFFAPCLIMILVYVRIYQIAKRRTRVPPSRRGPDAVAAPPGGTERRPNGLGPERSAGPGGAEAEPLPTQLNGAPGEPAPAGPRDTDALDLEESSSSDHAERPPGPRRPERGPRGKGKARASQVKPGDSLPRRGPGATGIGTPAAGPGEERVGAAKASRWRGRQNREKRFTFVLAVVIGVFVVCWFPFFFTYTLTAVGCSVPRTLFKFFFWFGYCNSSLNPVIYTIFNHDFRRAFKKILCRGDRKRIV
Chain of Histamine H2 receptor (P25021 whole entry): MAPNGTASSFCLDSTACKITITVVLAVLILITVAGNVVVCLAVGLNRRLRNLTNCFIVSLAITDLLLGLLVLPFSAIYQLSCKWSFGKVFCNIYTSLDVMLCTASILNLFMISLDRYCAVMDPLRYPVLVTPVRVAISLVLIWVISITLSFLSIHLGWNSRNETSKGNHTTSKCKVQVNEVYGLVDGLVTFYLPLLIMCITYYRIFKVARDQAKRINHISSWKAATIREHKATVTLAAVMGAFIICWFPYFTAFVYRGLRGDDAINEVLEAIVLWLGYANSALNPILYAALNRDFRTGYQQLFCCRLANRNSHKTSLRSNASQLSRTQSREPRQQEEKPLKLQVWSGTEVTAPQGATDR
Chain of Sigma intracellular receptor 2 (Q5BJF2 whole entry): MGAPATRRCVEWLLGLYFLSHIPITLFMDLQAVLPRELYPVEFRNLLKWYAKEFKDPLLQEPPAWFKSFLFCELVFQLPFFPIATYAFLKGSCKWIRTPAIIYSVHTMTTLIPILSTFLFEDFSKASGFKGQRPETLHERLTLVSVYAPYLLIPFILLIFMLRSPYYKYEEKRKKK

Ki [1]: 165 nM
Ki [2]: 10 nM
Ki (D(1A) dopamine receptor): 5470 nM
Ki (D(3) dopamine receptor): 726 nM
Ki (D(1B) dopamine receptor): 2830 nM
Ki [3]: 373 nM
Ki [4]: 717 nM
Ki [5]: 386 nM
Ki [6]: 1350 nM
Ki [7]: 279 nM
Ki (Histamine H2 receptor): 750 nM
Ki (Histamine H3 receptor): 1200 nM
Ki [8]: 743 nM
Ki [9]: > 10000 nM
Ki [10]: 99 nM
Ki [11]: 673 nM
Ki [12]: 2010 nM
Ki [13]: 713 nM
t1/2 [14]: 45.3 min
half-life at 10 µM [15]: > 60 min
Compound: CCN(CC)CCCC(C)Nc1cnc(C(=O)Nc2cc(F)cc3cccnc23)cn1 (stereo not given)
